Our source for the IC50 values is patent US8420675B2, “Aminotetrahydroindazoloacetic acids” (Hoffmann-La Roche Inc., priority 2008, dated 2013).

Molecules are shown by their SMILES. pIC50: −log10 of the molar value.

For this experiment, the target named is T1, human CRTH2 (Homo sapiens, UniProt Q9Y5Y4).
T1 construct: expressed in transfected cells
T1 sequence (Q9Y5Y4 1-395): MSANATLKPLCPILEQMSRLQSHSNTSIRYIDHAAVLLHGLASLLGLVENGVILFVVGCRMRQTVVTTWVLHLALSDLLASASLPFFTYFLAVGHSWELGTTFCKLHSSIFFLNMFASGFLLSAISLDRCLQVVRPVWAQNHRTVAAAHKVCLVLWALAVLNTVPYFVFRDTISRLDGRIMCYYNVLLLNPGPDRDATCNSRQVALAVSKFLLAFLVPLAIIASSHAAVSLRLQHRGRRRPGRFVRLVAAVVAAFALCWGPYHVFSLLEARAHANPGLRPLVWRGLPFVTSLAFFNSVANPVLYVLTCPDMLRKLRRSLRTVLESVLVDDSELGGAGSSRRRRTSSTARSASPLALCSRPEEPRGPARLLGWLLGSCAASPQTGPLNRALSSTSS
The experiment in a line: Human CRTH2 Receptor Binding Assay (whole cell, [3H]ramatroban competition). Particulars: CHO-K1 cells expressing human CRTH2 and G-alpha16; 20 nM [3H]ramatroban; 1 hour, room temperature. An outline of the steps:
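CHO-K1 cells stably co-expressing human CRTH2 and G-alpha16, 1.5×10^5 per reaction, incubated 1 hour at room temperature with 20 nM [3H]ramatroban in PBS containing 10 mM MgCl2 and 0.06% BSA. Non-specific binding defined with 10 μM 15(R)-15-methyl PGD2. IC50 from 7 concentrations by 4-parameter logistic fit of specific binding inhibition.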
Turning to `O=C(O)Cn1ncc2c1CCCC2NS(=O)(=O)c1cccc(-c2ccccc2Cl)c1` (centres unmarked) [Example 10-12a, [4-(2′-Chloro-biphenyl-3-sulfonylamino)-4,5,6,7-tetrahydro-indazol-1-yl]-acetic acid], the pIC50 (usually the negative decadic logarithm of the IC50, by convention in mol/L) is 6.51.

Molecule `O=C(O)Cn1ncc2c1CCC[C@H]2NS(=O)(=O)c1ccc(-c2cccc(Cl)c2)cc1` [Example 10-13a, [(R)-4-(3′-Chloro-biphenyl-4-sulfonylamino)-4,5,6,7-tetrahydro-indazol-1-yl]-acetic acid] gave a pIC50 of 6.82.

Regarding `O=C(O)Cn1ncc2c1CCCC2NS(=O)(=O)c1ccc(-c2cccc(OC(F)(F)F)c2)cc1` (centres unmarked) [Example 10-14a, [4-(3′-Trifluoromethoxy-biphenyl-4-sulfonylamino)-4,5,6,7-tetrahydro-indazol-1-yl]-acetic acid], the pIC50 is 7.24.

Consider `O=C(O)Cn1ncc2c1CCCC2NS(=O)(=O)c1ccc(-c2ccc(F)c(Cl)c2)cc1` (centres unmarked) [Example 10-15a, [4-(3′-Chloro-4′-fluoro-biphenyl-4-sulfonylamino)-4,5,6,7-tetrahydro-indazol-1-yl]-acetic acid], for which the negative logarithm of the IC50 (pIC50) is 6.33. In the case of `O=C(O)Cn1ncc2c1CCCC2NS(=O)(=O)c1cc(-c2ccccc2)cc(C(F)(F)F)c1` (centres unmarked) [Example 10-16a, [4-(5-Trifluoromethyl-biphenyl-3-sulfonylamino)-4,5,6,7-tetrahydro-indazol-1-yl]-acetic acid] it was 7.18. In the case of `O=C(O)Cn1ncc2c1CCCC2NS(=O)(=O)c1ccc(-c2ccccc2C(F)(F)F)cc1` (centres unmarked) [Example 10-17a, [4-(2′-Trifluoromethyl-biphenyl-4-sulfonylamino)-4,5,6,7-tetrahydro-indazol-1-yl]-acetic acid] it was 6.58.

Consider `Cc1cc(C)cc(-c2ccc(S(=O)(=O)NC3CCCc4c3cnn4CC(=O)O)cc2)c1` (centres unmarked) [Example 10-18a, [4-(3′,5′-Dimethyl-biphenyl-4-sulfonylamino)-4,5,6,7-tetrahydro-indazol-1-yl]-acetic acid], for which the negative-log IC50 (pIC50) was 6.73. For `O=C(O)Cn1ncc2c1CCCC2NS(=O)(=O)c1ccc(-c2cccc(O)c2)cc1` (centres unmarked) [Example 10-19a, [4-(3′-Hydroxy-biphenyl-4-sulfonylamino)-4,5,6,7-tetrahydro-indazol-1-yl]-acetic acid] the value was 6.57; for `CCOc1cccc(-c2ccc(S(=O)(=O)NC3CCCc4c3cnn4CC(=O)O)cc2)c1` (centres unmarked) [Example 10-20a, [4-(3′-Ethoxy-biphenyl-4-sulfonylamino)-4,5,6,7-tetrahydro-indazol-1-yl]-acetic acid], 6.57; for `CC(C)Oc1cccc(-c2ccc(S(=O)(=O)NC3CCCc4c3cnn4CC(=O)O)cc2)c1` (centres unmarked) [Example 10-21a, [4-(3′-Isopropoxy-biphenyl-4-sulfonylamino)-4,5,6,7-tetrahydro-indazol-1-yl]-acetic acid], 6.92. In the case of `CC(=O)c1cccc(-c2ccc(S(=O)(=O)NC3CCCc4c3cnn4CC(=O)O)cc2)c1` (centres unmarked) [Example 10-22a, [4-(3′-Acetyl-biphenyl-4-sulfonylamino)-4,5,6,7-tetrahydro-indazol-1-yl]-acetic acid] it was 6.82. In turn, `O=C(O)Cn1ncc2c1CCCC2NS(=O)(=O)c1ccc(-c2cccc([N+](=O)[O-])c2)cc1` (centres unmarked) [Example 10-23a, [4-(3′-Nitro-biphenyl-4-sulfonylamino)-4,5,6,7-tetrahydro-indazol-1-yl]-acetic acid] had a pIC50 of 6.62.

As for `O=C(O)Cn1ncc2c1CCCC2NS(=O)(=O)c1ccc(-c2cc(C(F)(F)F)cc(C(F)(F)F)c2)cc1` (centres unmarked) [Example 10-24a, [4-(3′,5′-Bis-trifluoromethyl-biphenyl-4-sulfonylamino)-4,5,6,7-tetrahydro-indazol-1-yl]-acetic acid], the negative-log IC50 (pIC50) is 7.01. For `O=C(O)Cn1ncc2c1CCC[C@H]2NS(=O)(=O)c1ccc(-c2cccc(C(F)(F)F)c2)cc1` [Example 10-25a, [(R)-4-(3′-Trifluoromethyl-biphenyl-4-sulfonylamino)-4,5,6,7-tetrahydro-indazol-1-yl]-acetic acid] the value was 7.88; for `C[Si](C)(C)c1cccc(-c2ccc(S(=O)(=O)N[C@@H]3CCCc4c3cnn4CC(=O)O)cc2)c1` [Example 10-26a, [(R)-4-(3′-Trimethylsilanyl-biphenyl-4-sulfonylamino)-4,5,6,7-tetrahydro-indazol-1-yl]-acetic acid], 8.68; for `CC(C)c1cccc(-c2ccc(S(=O)(=O)N[C@@H]3CCCc4c3cnn4CC(=O)O)cc2)c1` [Example 10-27a, [(R)-4-(3′-Isopropyl-biphenyl-4-sulfonylamino)-4,5,6,7-tetrahydro-indazol-1-yl]-acetic acid], 8.29.

On to `CS(=O)(=O)c1cccc(-c2ccc(S(=O)(=O)N[C@@H]3CCCc4c3cnn4CC(=O)O)cc2)c1` [Example 10-28a, [(R)-4-(3′-Methanesulfonyl-biphenyl-4-sulfonylamino)-4,5,6,7-tetrahydro-indazol-1-yl]-acetic acid], for which the negative logarithm of the IC50 (pIC50) is 8.18. In turn, `C[S+]([O-])c1cccc(-c2ccc(S(=O)(=O)N[C@@H]3CCCc4c3cnn4CC(=O)O)cc2)c1` (stereo partly drawn) [Example 10-29a, [(R)-4-(3′-Methanesulfinyl-biphenyl-4-sulfonylamino)-4,5,6,7-tetrahydro-indazol-1-yl]-acetic acid] gave a negative-log IC50 (pIC50) of 7.56. In the case of `O=C(O)CCn1ncc2c1CCC[C@H]2NS(=O)(=O)c1ccc(-c2cccc(C(F)(F)F)c2)cc1` [Example 10-31a, 3-[(R)-4-(3′-Trifluoromethyl-biphenyl-4-sulfonylamino)-4,5,6,7-tetrahydro-indazol-1-yl]-propionic acid] it was 8.25; in that of `CN([C@@H]1CCCc2c1cnn2CC(=O)O)S(=O)(=O)c1ccc(-c2cccc(C(F)(F)F)c2)cc1` [Example 11-1a, {(R)-4-[Methyl-(3′-trifluoromethyl-biphenyl-4-sulfonyl)-amino]-4,5,6,7-tetrahydro-indazol-1-yl}-acetic acid], 8.14; in that of `CN([C@@H]1CCCc2c1cnn2CCC(=O)O)S(=O)(=O)c1ccc(-c2cccc(C(F)(F)F)c2)cc1` [Example 11-2a, 3-{(R)-4-[Methyl-(3′-trifluoromethyl-biphenyl-4-sulfonyl)-amino]-4,5,6,7-tetrahydro-indazol-1-yl}-propionic acid], 7.09. In the case of `CN([C@@H]1CCCc2c1cnn2CC(=O)O)S(=O)(=O)c1cc(-c2ccc(F)cc2)cc(C(F)(F)F)c1` [Example 12-1a, {(R)-4-[(4′-Fluoro-5-trifluoromethyl-biphenyl-3-sulfonyl)-methyl-amino]-4,5,6,7-tetrahydro-indazol-1-yl}-acetic acid] it was 6.89; in that of `CN([C@@H]1CCCc2c1cnn2CC(=O)O)S(=O)(=O)c1cc(C(F)(F)F)cc(S(=O)(=O)c2ccc(Cl)cc2)c1` [Example 13-1a, ((R)-4-{[3-(4-Chloro-benzenesulfonyl)-5-trifluoromethyl-benzenesulfonyl]-methylamino}-4,5,6,7-tetrahydro-indazol-1-yl)-acetic acid], 8.54; in that of `Cc1ccc(S(=O)(=O)c2cc(C(F)(F)F)cc(S(=O)(=O)N(C)[C@@H]3CCCc4c3cnn4CC(=O)O)c2)cc1` [Example 13-2a, ((R)-4-{Methyl-[3-(toluene-4-sulfonyl)-5-trifluoromethyl-benzenesulfonyl]-amino}-4,5,6,7-tetrahydro-indazol-1-yl)-acetic acid], 8.57. Consider `CN([C@@H]1CCCc2c1cnn2CCC(=O)O)S(=O)(=O)c1cc(C(F)(F)F)cc(S(=O)(=O)c2ccc(F)cc2)c1` [Example 13-3a, 3-((R)-4-{[3-(4-Fluoro-benzenesulfonyl)-5-trifluoromethyl-benzenesulfonyl]-methyl-amino}-4,5,6,7-tetrahydro-indazol-1-yl)-propionic acid], for which the pIC50 was 8.40. In the case of `CN([C@@H]1CCCc2c1cnn2CCC(=O)O)S(=O)(=O)c1cc(C(F)(F)F)cc(S(=O)(=O)c2ccc(Cl)cc2)c1` [Example 13-4a, 3-((R)-4-{[3-(4-Chloro-benzenesulfonyl)-5-trifluoromethyl-benzenesulfonyl]-methyl-amino}-4,5,6,7-tetrahydro-indazol-1-yl)-propionic acid] it was 8.60; in that of `COc1ccc(S(=O)(=O)c2cc(C(F)(F)F)cc(S(=O)(=O)N(C)[C@@H]3CCCc4c3cnn4CCC(=O)O)c2)cc1` [Example 13-5a, 3-((R)-4-{[3-(4-Methoxy-benzenesulfonyl)-5-trifluoromethyl-benzenesulfonyl]-methyl-amino}-4,5,6,7-tetrahydro-indazol-1-yl)-propionic acid], 8.24. In the case of `Cc1ccc(S(=O)(=O)c2cc(C(F)(F)F)cc(S(=O)(=O)N(C)[C@@H]3CCCc4c3cnn4CCC(=O)O)c2)cc1` [Example 13-6a, 3-((R)-4-{Methyl-[3-(toluene-4-sulfonyl)-5-trifluoromethyl-benzenesulfonyl]-amino}-4,5,6,7-tetrahydro-indazol-1-yl)-propionic acid], the pIC50 is 8.11.

The molecule `O=C(O)Cn1ncc2c1CCCC2NS(=O)(=O)c1cccc(NC(=O)c2ccccc2)c1` (centres unmarked) [Example 14-1a, [4-(3-Benzoylamino-benzenesulfonylamino)-4,5,6,7-tetrahydro-indazol-1-yl]-acetic acid] had a pIC50 of 6.45.
